Data as given in article PMC12541891 (MicrobiologyOpen, 2025).
≈ marks a conversion by molar mass, not a printed value. Where “and” joins values, the source holds several entries; their conditions need not be identical. Equal entries are not always repeated.

Columns and labels:
C. krusei biofilm [1] = experiment: Biofilm metabolic activity by XTT-reduction assay; format: cell-based, Candida krusei
Method: (§1) For all bacterial strains considered in the study, biofilm was performed on a 96‐well plate inoculated with 200 µL of a bacterial suspension 1 × 10^6 CFU/mL and incubated 24 h at 37°C. After incubation for 4 h at 37°C, the medium was aspirated, non‐adherent cells were removed, washed with PBS and added with 200 µL of fresh medium. […] Similarly, to perform fungal biofilm, the different Candida species were grown for 24 h at 28°C on a multi‐wells plate, washed twice with sterile PBS, and then resuspended at 37°C in RPMI 1640 plus 10% FBS at 2.5 × 10^7 cells. After incubation for 3 h at 37°C in six‐well polystyrene plates, the medium was aspirated, non‐adherent cells were removed and washed with PBS.
(§2) The biofilm metabolic activity was evaluated by XTT assay, that highpoints the activity through the reduction of the tetrazolium salt to formazan. After the removal of supernatant and washing with PBS, a solution of XTT‐menadione solution were added to wells. The XTT‐menadione was prepared dissolving XTT powder in prewarmed PBS (37°C) at 0.5 g/L. The solution was sterilized through a 0.22 μm pore size filter. Before each assay, the XTT solution was thawed and supplemented with menadione, a 10 mM stock dissolved in acetone to a final concentration 1 μM. Plates were incubated for 3 h at 37°C in the dark and then the absorbance was measured at 492 nm using the microplate reader, Tecan Sunrise.

E. coli biofilm [2] = experiment: Biofilm biomass by crystal violet (CV) assay; format: cell-based, Escherichia coli; conditions: substance alone at MIC
Method: as §1
(§3) To quantify bacterial and Candida biofilm biomass, CV, a dye able to color the biofilm matrix, was used. Firstly, after the removal of supernatant and washing with PBS, biofilm was fixed adding 100 µL of 99% methanol for 15 min. Then, methanol was rinsed off and the plates were air‐dried. Subsequently, 100 µL of a 0.1% of CV solution were added to wells and, after 20 min of contact, the plates were washed under running tap water. To dissolve the bounded CV, 150 µL of 33% of glacial acetic acid were added to wells. The absorbance was measured at 590 nm using an automatic microplate reader, Tecan Sunrise (Tecan Group Ltd., Männedorf, Switzerland).

ESBL-Ec biofilm [3] = experiment: Biofilm biomass by crystal violet (CV) assay; format: cell-based, Escherichia coli; conditions: substance alone at MIC
Method: as §1, §3

C. tropicalis biofilm = experiment: Biofilm biomass by crystal violet (CV) assay; format: cell-based, Candida tropicalis
Method: as §1, §3

E. coli biofilm [4] = experiment: Biofilm metabolic activity by XTT-reduction assay; format: cell-based, Escherichia coli; conditions: substance alone at MIC
Method: as §1, §2

ESBL-Ec biofilm [5] = experiment: Biofilm metabolic activity by XTT-reduction assay; format: cell-based, Escherichia coli; conditions: substance alone at MIC
Method: as §1, §2

C. krusei 44956 = experiment: MIC and MFC by microbroth dilution; format: cell-based, Candida krusei; conditions: Pichia kudriavzevii, 44956
Method: No substance was added, in one well, for growth control. A bacterial suspension of 1 × 10^8 CFU/mL was inoculated into all wells of the plate and incubated for 24 h at 37°C. […] The dilutions ranged from 4 to 2000 µg/mL for the substances. The inoculum size was about 2.5×10^3 cells/mL. The plates were incubated at 28°C for 24–48 h. The MIC was determined as the lowest substances' concentration where no visible bacterial or fungal growth was observed. […] Each antimicrobial assay was performed in triplicate.

C. glabrata biofilm = experiment: Biofilm biomass by crystal violet (CV) assay; format: cell-based, Candida glabrata
Method: as §1, §3

C. krusei biofilm [6] = experiment: Biofilm biomass by crystal violet (CV) assay; format: cell-based, Candida krusei; conditions: substance alone at MIC
Method: as §1, §3

C. albicans biofilm = experiment: Biofilm metabolic activity by XTT-reduction assay; format: cell-based, Candida albicans
Method: as §1, §2

[7] = biofilm in formation (3 h), substance alone at MIC
[8] = biofilm in formation, sub-MIC concentrations alone or in combination (Table 5), listed as C
[9] = preformed biofilm (24 h), substance alone at MIC
[10] = preformed biofilm, sub-MIC concentrations alone or in combination (Table 5), listed as C

Cc1ccc(C(C)C)cc1O [Carvacrol, 2‐methyl‐5‐isopropyl phenol] was tested, and the “Percentage of metabolic activity reduction” value (C. krusei biofilm [1]; [7]) was 89.4%, the “Percentage of metabolic activity reduction” value (C. krusei biofilm [1]; [8]) was 30% and the “Percentage of metabolic activity reduction” value (C. krusei biofilm [1]; [9]) was 89.4%. The “Percentage of metabolic activity reduction” value (C. krusei biofilm [1]; [10]) was 25%, the “Percentage of biomass reduction” value (E. coli biofilm [2]; biofilm in formation (4 h)) was 70.6% and the “Percentage of biomass reduction” value (E. coli biofilm [2]; preformed biofilm (24 h)) was 62.2%. For the same compound, the “Percentage of biomass reduction” value (ESBL-Ec biofilm [3]; biofilm in formation (4 h)) was 55.9%, the “Percentage of biomass reduction” value (ESBL-Ec biofilm [3]; preformed biofilm (24 h)) was 59.6% and the “Percentage of biomass reduction” value (C. tropicalis biofilm; [8]) was 25.3%. For the same compound, the “Percentage of biomass reduction” value (C. tropicalis biofilm; [9]) was 57.4%, the “Percentage of biomass reduction” value (C. tropicalis biofilm; [10]) was 20.8% and the “Percentage of metabolic activity reduction” value (E. coli biofilm [4]; biofilm in formation (4 h)) was 62%. For the same compound, the “Percentage of metabolic activity reduction” value (E. coli biofilm [4]; preformed biofilm (24 h)) was 28.5%, the “Percentage of metabolic activity reduction” value (ESBL-Ec biofilm [5]; biofilm in formation (4 h)) was 57% and the “Percentage of metabolic activity reduction” value (ESBL-Ec biofilm [5]; preformed biofilm (24 h)) was 22%. For the same compound, the MFC (C. krusei 44956) was 500 µg/mL (≈ 3.33 mM), the MIC (C. krusei 44956) was 500 µg/mL (≈ 3.33 mM) and the “Percentage of biomass reduction” value (C. glabrata biofilm; [8]) was 64.9%. The “Percentage of biomass reduction” value (C. glabrata biofilm; [9]) was 52.9%, the “Percentage of biomass reduction” value (C. glabrata biofilm; [10]) was 44.3% and the “Percentage of biomass reduction” value (C. krusei biofilm [6]; biofilm in formation (3 h)) was 18% and 18.4%. For the same compound, the “Percentage of biomass reduction” value (C. krusei biofilm [6]; preformed biofilm (24 h)) was 39.2%, the “Percentage of metabolic activity reduction” value (C. albicans biofilm; [7]) was 91% and the “Percentage of metabolic activity reduction” value (C. albicans biofilm; [8]) was 55.1%. The “Percentage of metabolic activity reduction” value (C. albicans biofilm; [9]) was 93% and the “Percentage of metabolic activity reduction” value (C. albicans biofilm; [10]) was 44.9%.
